Columns and labels:
[1] = tested on: S288C and HGT1 or PTR2 modified strains (Hgt1p, Ptr2p); test: Evaluation of γ-Glu-Val-Gly uptake activity of HGT1 or PTR2 modified strains; format: cell-based, Saccharomyces cerevisiae; details: 100 ppm γ-Glu-Val-Gly in SD medium, 7 hours
Description: The influence of Hgt1p, which has been considered to be a GSH specific transporter, and Ptr2p, which is a peptide transporter, on γ-Glu-Val-Gly accumulation was evaluated as follows.
Each strain was cultivated in 50-ml tubes containing 5 ml of SD medium with 100 ppm γ-Glu-Val-Gly as a final concentration. Tubes were inoculated by overnight culture of the corresponding strain at initial OD600=0.5, and placed in a rotation shaker at 240 rpm, 30° C. The cultivation time was 7 hours. Then, cells from 2 ml of broth culture were harvested by centrifugation, and were washed with 1 ml of milliQ water three times. Then, washed cells were suspended in 1 ml of milliQ and were incubated at 70° C. for 10 min with a water bath to extract intracellular materials. After cell debris and the extract were separated by centrifugation, the aqueous phase was transferred to a clean vial and the vial was then vacuum-dried. Thus, a dried extract was prepared. Then, the amount of γ-Glu-Val-Gly in the dried extract was measured with LC-MS/MS analysis. The detailed procedures are described below.
1. Sample was dissolved in 100 μl of water, and then 100 μl of acetonitrile (MeCN) was added, and then centrifuged.
2. 190 μl of supernatant was transferred to a new tube and dried.
3. Pellet was dissolved in 40 μl of water.
4. For derivatization, 20 μl of the obtained solution was mixed with 60 μl of buffer and 80 μl of derivatization reagent, and incubated at 55° C. for 10 min.
5. After incubation, 200 μl of 0.1% solution of HCOOH in water was added to stop AQC derivatization reaction.
40 μl of the resultingsolution was taken for HPLC, and γ-Glu-Val-Gly in the elutants was analyzed with MS/MS detector.
It was shown that the HGT1 gene is essential to transport γ-Glu-Val-Gly from the medium, but PTR2 is not.

[2] = tested on: S288C PADH1-HGT1 (Hgt1p overproducing strain) and S288C; test: Peptide uptake of Hgt1p overproducing strain and parental strain S288C, intracellular content on dry weight cell; format: cell-based, Saccharomyces cerevisiae
Description: One loop of the S288C strain was inoculated into SD medium (50 ml in a 500 ml-volume Sakaguchi flask), and cultured at 30° C. for 24 hours with shaking at a velocity of 120 rpm. Absorbance of the obtained culture broth was measured, the culture broth was inoculated into SD medium (400 ml in a 2 L-volume conical flask with baffle fins, two or more flasks) so that OD660 was 0.01 at the start of the culture, and culture was performed at 30° C. for 19 hours with shaking by rotation at a velocity of 120 rpm. After 19 hours, γ-Glu-Val-Gly aqueous solutions of various concentrations were added to obtain predetermined concentrations, and the culture was continued for 1 hour. Using these culture broths, the γ-Glu-Val-Gly content in dry cells was calculated in the same manner as in Example 2. Furthermore, the solid content of the extract was calculated, and the amount of γ-Glu-Val-Gly in the solid content was also calculated.
The S288C PADH1-HGT1, Hgt1p overproducing strain obtained in Example 12, and its parental strain S288C, were evaluated for their ability to take up γ-Glu-Val-Gly in the same manners as described in Example 4. The amount of γ-Glu-Val-Gly added into the medium was 100 ppm as a final concentration. As a result, intracellular content of γ-Glu-Val-Gly in S288C on the dry weight cell was about 0.9%, but intracellular content of γ-Glu-Val-Gly in S288C PADH1-HGT1 on the dry weight cell was about 4.9%.
S288C PADH1-HGT1, Hgt1p overproducing strain obtained in Example 12, and its parental strain S288C were evaluated for their γ-Glu-nVal-Gly uptake abilities in the same manners as described in Example 4 and Example 13. The amount of γ-Glu-nVal-Gly added to the medium was 100 ppm as a final concentration.

## CC(C)[C@H](NC(=O)CC[C@H](N)C(=O)O)C(=O)NCC(=O)O [γ-Glu-Val-Gly]
[1]; Table 13, strain S288C hgt1Δ ptr2Δ
  intracellular γ-Glu-Val-Gly: 0.01 mg 1^−1 OD600^−1
[1]; Table 13, strain S288C hgt1Δ
  intracellular γ-Glu-Val-Gly: 0.01 mg 1^−1 OD600^−1
[1]; Table 13, strain S288C ptr2Δ
  intracellular γ-Glu-Val-Gly: 1.84 mg 1^−1 OD600^−1
[1]; Table 13, strain S288C
  intracellular γ-Glu-Val-Gly: 1.93 mg 1^−1 OD600^−1
[1]; Table 14, strain S288C PADH1-HGT1
  intracellular γ-Glu-Val-Gly: 28.6 mg 1^−1 OD600^−1
[1]; Table 14, strain S288C PADH1-PTR2
  intracellular γ-Glu-Val-Gly: 2.6 mg 1^−1 OD600^−1
[1]; Table 14, strain S288C
  intracellular γ-Glu-Val-Gly: 3.3 mg 1^−1 OD600^−1
[2]; S288C PADH1-HGT1, γ-Glu-Val-Gly 100 ppm added into the medium
  intracellular content of γ-Glu-Val-Gly on the dry weight cell: about 4.9%
[2]; S288C, γ-Glu-Val-Gly 100 ppm added into the medium
  intracellular content of γ-Glu-Val-Gly on the dry weight cell: about 0.9%
[2]; S288C, γ-Glu-nVal-Gly 100 ppm added to the medium
  intracellular content of γ-Glu-Val-Gly on the dry weight cell: about 0.09%
